The NIST ThermoML archive (doi:10.1016/j.fluid.2019.06.022)
Values joined by “and” are separate entries in the source; they are usually repeats but may differ in a detail not shown here. Equal values may be shown once.

Test: xn = mol fraction of the nth substance listed
Details: Liquid; for mass density: Bellows volumetry; for viscosity: Falling or rolling sphere viscometry

C=C [ethene] + Cc1ccccc1
Details	mass density, x1 = 0.1131 [kg/m3]	mass density, x1 = 0.3241	viscosity, x1 = 0.1131	viscosity, x1 = 0.3241
295.4 K, 2700 kPa	815.8	–	0.474 mPa·s	–
295.4 K, 2800 kPa	815.8	–	0.474 mPa·s	–
295.4 K, 11400 kPa	823.1	–	0.508 mPa·s	–
295.4 K, 11500 kPa	823.1	–	0.509 mPa·s	–
295.4 K, 20400 kPa	829.9	–	0.551 mPa·s	–
295.4 K, 20500 kPa	829.9	–	0.548 mPa·s	–
295.4 K, 36200 kPa	840.8	–	0.614 mPa·s and 0.615 mPa·s	–
298 K, 3400 kPa	–	754.7 kg/m3	–	0.309 mPa·s
298 K, 3700 kPa	–	754.7 kg/m3	–	0.312 mPa·s
298 K, 10000 kPa	–	767.2 kg/m3	–	0.328 mPa·s and 0.332 mPa·s
298 K, 22000 kPa	–	778.9 kg/m3	–	0.36 mPa·s and 0.364 mPa·s
298 K, 22300 kPa	–	778.9 kg/m3	–	0.362 mPa·s
298 K, 22400 kPa	–	778.9 kg/m3	–	0.366 mPa·s
298 K, 35100 kPa	–	789.8 kg/m3	–	0.402 mPa·s and 0.398 mPa·s
298 K, 48000 kPa	–	799.7 kg/m3	–	0.434 mPa·s and 0.439 mPa·s
298 K, 68400 kPa	–	813.3 kg/m3	–	0.496 mPa·s
298 K, 68500 kPa	–	813.3 kg/m3	–	0.5 mPa·s
322.1 K, 4200 kPa	792.1	–	0.36 mPa·s and 0.361 mPa·s	–
322.1 K, 10200 kPa	798.1	–	0.376 mPa·s and 0.377 mPa·s	–
322.1 K, 21200 kPa	808	–	0.415 mPa·s	–
322.1 K, 34400 kPa	819.1	–	0.442 mPa·s	–
322.1 K, 34500 kPa	819.1	–	0.452 mPa·s	–
322.1 K, 48100 kPa	828.1	–	0.495 mPa·s	–
322.1 K, 48200 kPa	828.5	–	0.498 mPa·s and 0.497 mPa·s	–
322.1 K, 65900 kPa	840	–	0.556 mPa·s and 0.55 mPa·s	–
322.2 K, 7200 kPa	–	739.3 kg/m3	–	0.25 mPa·s and 0.253 mPa·s
322.2 K, 14700 kPa	–	748.2 kg/m3	–	0.268 mPa·s and 0.27 mPa·s
322.2 K, 21700 kPa	–	756.1 kg/m3	–	0.288 mPa·s
322.2 K, 21800 kPa	–	756.1 kg/m3	–	0.283 mPa·s
322.2 K, 34300 kPa	–	768.4 kg/m3	–	0.313 mPa·s
322.2 K, 34500 kPa	–	768.4 kg/m3	–	0.317 mPa·s
322.2 K, 48300 kPa	–	780.5 kg/m3	–	0.344 mPa·s and 0.348 mPa·s
322.2 K, 68800 kPa	–	795.9 kg/m3 and 795.8 kg/m3	–	0.391 mPa·s and 0.397 mPa·s
368.1 K, 6800 kPa	–	692.1 kg/m3	–	0.171 mPa·s and 0.169 mPa·s
368.1 K, 13800 kPa	–	704 kg/m3	–	0.182 mPa·s
368.1 K, 13900 kPa	–	704 kg/m3	–	0.185 mPa·s
368.1 K, 26500 kPa	–	721.7 kg/m3 and 720.9 kg/m3	–	0.205 mPa·s and 0.208 mPa·s
368.1 K, 26600 kPa	–	720.8 kg/m3 and 721.6 kg/m3	–	0.207 mPa·s and 0.208 mPa·s
368.1 K, 41800 kPa	–	736.7 kg/m3	–	0.234 mPa·s
368.1 K, 42100 kPa	–	736.7 kg/m3	–	0.235 mPa·s
368.1 K, 54100 kPa	–	749.3 kg/m3	–	0.254 mPa·s and 0.255 mPa·s
368.1 K, 54300 kPa	–	749.3 kg/m3	–	0.253 mPa·s and 0.256 mPa·s
368.1 K, 68200 kPa	–	761.9 kg/m3	–	0.278 mPa·s and 0.279 mPa·s
369.3 K, 4200 kPa	748.1	–	0.235 mPa·s	–
369.3 K, 4300 kPa	748.1	–	0.236 mPa·s	–
369.3 K, 10200 kPa	755.4	–	0.251 mPa·s	–
369.3 K, 10300 kPa	755.4	–	0.25 mPa·s	–
369.3 K, 20700 kPa	767.5	–	0.273 mPa·s	–
369.3 K, 20800 kPa	767.5	–	0.273 mPa·s	–
369.3 K, 34800 kPa	781.7	–	0.305 mPa·s and 0.304 mPa·s	–
369.3 K, 48700 kPa	794.3	–	0.335 mPa·s	–
369.3 K, 48800 kPa	794.3	–	0.335 mPa·s	–
369.3 K, 68400 kPa	809.5	–	0.382 mPa·s	–
369.3 K, 68500 kPa	809.5	–	0.379 mPa·s	–
435.9 K, 15500 kPa	–	638 kg/m3	–	0.126 mPa·s
435.9 K, 15900 kPa	–	637.9 kg/m3	–	0.126 mPa·s
435.9 K, 27600 kPa	–	662 kg/m3	–	0.146 mPa·s
435.9 K, 27700 kPa	–	662 kg/m3	–	0.144 mPa·s
435.9 K, 41800 kPa	–	685.4 kg/m3	–	0.165 mPa·s
435.9 K, 42000 kPa	–	685.3 kg/m3 and 685.5 kg/m3	–	0.168 mPa·s and 0.164 mPa·s
435.9 K, 42200 kPa	–	685.4 kg/m3	–	0.166 mPa·s
435.9 K, 56000 kPa	–	703.4 kg/m3	–	0.192 mPa·s
435.9 K, 56200 kPa	–	703.4 kg/m3	–	0.188 mPa·s
435.9 K, 68400 kPa	–	716.8 kg/m3	–	0.202 mPa·s
435.9 K, 68500 kPa	–	716.8 kg/m3	–	0.199 mPa·s
437 K, 3900 kPa	678.2	–	0.155 mPa·s	–
437 K, 4200 kPa	678.2	–	0.153 mPa·s	–
437 K, 13700 kPa	699	–	0.173 mPa·s	–
437 K, 14100 kPa	699.1	–	0.172 mPa·s	–
437 K, 27600 kPa	721	–	0.196 mPa·s	–
437 K, 27800 kPa	721	–	0.197 mPa·s	–
437 K, 41400 kPa	738.3	–	0.22 mPa·s	–
437 K, 41500 kPa	738.3	–	0.22 mPa·s	–
437 K, 42400 kPa	740	–	0.222 mPa·s	–
437 K, 42700 kPa	740	–	0.224 mPa·s	–
437 K, 54200 kPa	750.9	–	0.242 mPa·s	–
437 K, 54300 kPa	750.9	–	0.243 mPa·s	–
437 K, 67900 kPa	763.9	–	0.264 mPa·s	–
522 K, 23100 kPa	–	555.7 kg/m3	–	0.097 mPa·s
522 K, 23200 kPa	–	555.5 kg/m3	–	0.095 mPa·s
522 K, 29400 kPa	–	574.4 kg/m3 and 574.7 kg/m3 and 574.6 kg/m3	–	0.102 mPa·s and 0.104 mPa·s
522 K, 29500 kPa	–	574.4 kg/m3	–	0.103 mPa·s
522 K, 38300 kPa	–	597 kg/m3 [middle of 4 runs]	–	0.114 mPa·s [middle of 4 runs]
522 K, 50700 kPa	–	621.2 kg/m3 and 620.9 kg/m3	–	0.125 mPa·s and 0.126 mPa·s
522 K, 50800 kPa	–	621.2 kg/m3	–	0.125 mPa·s
522 K, 50900 kPa	–	621.2 kg/m3	–	0.123 mPa·s
522 K, 68400 kPa	–	645.9 kg/m3	–	0.144 mPa·s
522 K, 68700 kPa	–	646 kg/m3	–	0.142 mPa·s
522.7 K, 9400 kPa	581.8	–	0.101 mPa·s	–
522.7 K, 9800 kPa	581.8	–	0.103 mPa·s	–
522.7 K, 31600 kPa	643.4	–	0.137 mPa·s	–
522.7 K, 32000 kPa	643.4	–	0.131 mPa·s	–
522.7 K, 32200 kPa	643.5	–	0.132 mPa·s	–
522.7 K, 41200 kPa	659.4	–	0.15 mPa·s	–
522.7 K, 41700 kPa	659.4	–	0.145 mPa·s	–
522.7 K, 56200 kPa	679.5	–	0.167 mPa·s	–
522.7 K, 56300 kPa	679.4	–	0.162 mPa·s	–
522.7 K, 67600 kPa	693.8	–	0.179 mPa·s	–
522.7 K, 68100 kPa	693.8	–	0.177 mPa·s	–
